Measurements from PMC4879371, “Antitrypanosomal Activities and Mechanisms of Action of Novel Tetracyclic Iridoids from Morinda lucida Benth” (Antimicrobial Agents and Chemotherapy, 2016).
“Also recorded” adds a separate entry of the source.

What was measured:
NB1RGB (skin fibroblast) = assay: MTT cytotoxicity assay, NB1RGB; type: cell-based, human; details: IC50 NB1RGB / IC50 trypanosomes
Protocol: (§1) The cytotoxicity of the compounds to mammalian cells were determined using four human normal cell lines, namely, NB1RGB (skin fibroblast) and HF-19 (lung fibroblast) obtained from the RIKEN Bio Resource Center Cell Bank (Japan) and Chang Liver and Hs888Lu (lung) obtained from the European Collection of Authenticated Cell Cultures (ECACC). NB1RGB and HF-19 were maintained in minimum essential medium-α (MEM-α). Chang Liver and Hs888Lu were grown in Eagle's minimum essential medium (EMEM) and RPMI 1640, respectively. All of these media were supplemented with 10% fetal bovine serum (FBS) and 1% penicillin-streptomycin and were then incubated at 37°C under 5% CO2 in fully humidified conditions.
(§2) Cytotoxicity was determined using a 3-(4,5-dimethylthiazol-2-yl)-2,5-diphenyltetrazolium bromide (MTT) assay. The cells were treated with molucidin, ML-2-3, or ML-F52 at concentrations of ≤50 μM for 48 h. Cells were plated at a density of 0.5 × 10^4 cells/well into 96-well plates. After 24 h of incubation, cells were treated with various concentrations of each of the purified compounds for 48 h. Then, MTT solution was added to each well, and the cells were incubated for another 4 h. The precipitated MTT-formazan product was dissolved in 0.04 N HCl-isopropanol, and the amount of formazan was measured at a wavelength of 595 nm by a microplate reader (Immuno Mini NJ-2300; Nihon InterMed, Tokyo, Japan). Cytotoxicity was calculated as the percentage of live cells relative to the control culture. The selectivity index (SI) was expressed as the ratio of the IC50 obtained for mammalian cells and the IC50 for trypanosomes.

[1] = MTT cytotoxicity assay, NB1RGB; type: cell-based, human; details: human, NB1RGB skin fibroblast cells; NB1RGB normal skin fibroblast, 48 h
Protocol: as §1, §2

[2] = test system: Trypanosoma parasites (T. brucei brucei); assay: FACS Nexin assay for apoptosis in trypanosome parasites; type: cell-based; details: 24 h; for apoptosis induction: molucidin 6.25 μM, ML-2-3 6.25 μM, ML-F52 0.78 μM; for minimum concentration inducing strong apoptosis: 0 μM to 50 μM tested
Protocol: Seeding and incubation of parasites with compounds were done under the same conditions as those for the alamarBlue assay as described above without addition of the alarmarBlue reagent. In this case, after 24 h of incubation, Guava reagents for Nexin and cell cycle assays were added, and each assay was performed using the Millipore Guava easyCyte 5HT fluorescence-activated cell sorter (FACS) machine according to the manufacturer's instruction. The Nexin assay and subsequent FACS analysis allowed for detection of markers of apoptosis induction by the plant materials. Similarly, the cell cycle assay and subsequent FACS analysis allowed for detection of markers of cell cycle alteration by the plant materials. […]

[3] = MTT cytotoxicity assay, HF-19; type: cell-based, human; details: human, HF-19 lung fibroblast cells; HF-19 normal lung fibroblast, 48 h
Protocol: as §1, §2

HF-19 (lung fibroblast) = assay: MTT cytotoxicity assay, HF-19; type: cell-based, human; details: IC50 HF-19 / IC50 trypanosomes
Protocol: as §1, §2

[4] = MTT cytotoxicity assay, Chang Liver; type: cell-based, human; details: human, Chang Liver cells; Chang liver normal liver, 48 h
Protocol: as §1, §2

Plasmodium yoelii = assay: Preliminary in vivo studies against Plasmodium yoelii; details: BALB/c mice, unpublished data
Plasmodium falciparum = assay: Preliminary in vitro anti-Plasmodium activity; type: cell-based; details: preliminary studies, unpublished data
[5] = test system: four human normal cell lines (NB1RGB, HF-19, Chang Liver, Hs888Lu); assay: MTT cytotoxicity assay, all cell lines tested; type: cell-based
Protocol: as §1, §2

[6] = test system: Trypanosoma brucei parasites; assay: FACS cell cycle assay, time course; type: cell-based
Protocol: Seeding and incubation of parasites with compounds were done under the same conditions as those for the alamarBlue assay as described above without addition of the alarmarBlue reagent. In this case, after 24 h of incubation, Guava reagents for Nexin and cell cycle assays were added, and each assay was performed using the Millipore Guava easyCyte 5HT fluorescence-activated cell sorter (FACS) machine according to the manufacturer's instruction. The Nexin assay and subsequent FACS analysis allowed for detection of markers of apoptosis induction by the plant materials. Similarly, the cell cycle assay and subsequent FACS analysis allowed for detection of markers of cell cycle alteration by the plant materials.
To investigate the sequence in which the events (apoptosis induction, PFR-2 suppression, and cell cycle alteration) involved in mechanisms of action occur, we examined the time course for the three events using ML-2-3-treated parasites. Trypanosoma brucei parasites were incubated for 0, 0.5, 1.5, 3, 6, and 24 h with 15 μM ML-2-3 and were then subjected to both Nexin assay and Western blot analyses using the PFR-2 antibody. We further investigated the time course of cell cycle alteration using ML-2-3-treated parasites at similar concentrations and incubation periods.

COC(=O)C1=CO[C@@H]2O[C@H]3/C(=C\c4ccc(O)c(OC)c4)C(=O)O[C@]34C=C[C@H]1[C@H]24 [molucidin]
SI (selectivity index) (NB1RGB (skin fibroblast)): 5.60
IC50 at 48 h [1]: 7.11 µM
early-stage apoptotic cells (lower right quadrant) ([2]; 6.25 μM): 1.1%
late-stage apoptotic cells (upper right quadrant) ([2]; 6.25 μM): 0%
apoptosis induction [2]: no significant induction of apoptosis; also recorded: no significant apoptotic induction
IC50 at 48 h [3]: 14.2 µM
SI (selectivity index) (HF-19 (lung fibroblast)): 11.21
IC50 at 48 h [4]: 9.34 µM
efficacy against Plasmodium yoelii in vivo (Plasmodium yoelii): significant efficacy
anti-Plasmodium activity in vitro (Plasmodium falciparum): anti-Plasmodium activities

CCOC(=O)C1=CO[C@@H]2O[C@H]3/C(=C\c4ccc(O)c(OC)c4)C(=O)O[C@]34C=C[C@H]1[C@H]24 [ML-F52]
SI (selectivity index) (NB1RGB (skin fibroblast)): 11.02
IC50 at 48 h [1]: 4.74 µM
minimum concentration inducing strong apoptosis [2]: 0.78 µM
early-stage apoptotic cells (lower right quadrant) ([2]; 0.78 μM): 14.2%
late-stage apoptotic cells (upper right quadrant) ([2]; 0.78 μM): 2.3%
apoptosis induction [2]: strongest induction of apoptosis
IC50 at 48 h [3]: 10.9 µM
SI (selectivity index) (HF-19 (lung fibroblast)): 25.44
IC50 at 48 h [4]: 18.1 µM
anti-Plasmodium activity in vitro (Plasmodium falciparum): anti-Plasmodium activities
selectivity index (SI) for all of the cell lines [5]: > 10

COc1cc(/C=C2/C(=O)O[C@]34C=C[C@@H]5C(C(=O)O)=CO[C@H](O[C@@H]23)[C@@H]54)ccc1O [ML-2-3]
SI (selectivity index) (NB1RGB (skin fibroblast)): >13.33
IC50 at 48 h [1]: > 50 µM
minimum concentration inducing strong apoptosis [2]: 6.25 µM
early-stage apoptotic cells (lower right quadrant) ([2]; 6.25 μM): 7.8%
late-stage apoptotic cells (upper right quadrant) ([2]; 6.25 μM): 4.4%
apoptosis induction [2]: significant apoptosis induction
IC50 at 48 h [3]: > 50 µM
SI (selectivity index) (HF-19 (lung fibroblast)): >13.33
IC50 at 48 h [4]: > 50 µM
anti-Plasmodium activity in vitro (Plasmodium falciparum): anti-Plasmodium activities
selectivity index (SI) for all of the cell lines [5]: > 10
cytotoxicity among all cell lines ([5]; ≤50 μM, 48 h): did not show any cytotoxicity
time of exposure to significant changes in cell cycle ([6]; 15 μM ML-2-3): ≤ 0.5 h
S-phase cells ([6]; 15 μM, 0.5 h to 24 h): stayed stable
G2/M-phase cells ([6]; 15 μM, within 0.5 h of exposure, decreased from 31%): 9%
